Source: patent publication US20050209278A1, “Piperidinyl- and piperazinyl-sulfonylmethyl hydroxamic acids and their use as protease inhibitors” (priority 2002, published 2005)
Like-named read-outs stand apart in the source and are kept apart here.

Target: T1, MMP-1 (Homo sapiens, UniProt P03956)
T1 construct: made in house; host or cells: MMP-1-transfected HT-1080 cells (spent media)
T1 sequence (P03956 100-469): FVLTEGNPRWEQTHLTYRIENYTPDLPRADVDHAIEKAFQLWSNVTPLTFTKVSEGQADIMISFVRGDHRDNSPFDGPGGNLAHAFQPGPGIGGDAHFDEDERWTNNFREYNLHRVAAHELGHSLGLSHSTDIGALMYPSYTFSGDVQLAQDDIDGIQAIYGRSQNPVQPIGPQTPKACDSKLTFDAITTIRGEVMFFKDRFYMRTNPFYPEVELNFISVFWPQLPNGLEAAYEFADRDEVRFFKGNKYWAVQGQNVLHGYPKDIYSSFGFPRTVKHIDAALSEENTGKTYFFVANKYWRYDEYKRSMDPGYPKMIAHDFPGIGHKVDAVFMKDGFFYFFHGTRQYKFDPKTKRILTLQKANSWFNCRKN
Assay: In vitro MMP inhibition, Ki determination (fluorogenic substrate II)
Type: biochemical
Details: read-out: MMP-1 Ki

SMILES | Ki (value outside parentheses) [µM] | Ki (value not in parenthesis) [µM]
CCCCOc1ccc(N2CCN(S(=O)(=O)C3(C(=O)NO)CCN(C(=O)C(C)C)CC3)CC2)cc1 [Example 273] | > 10 | –
COCCN1CCC(C(=O)NO)(S(=O)(=O)N2CCC(c3ncc(CC(C)C)s3)CC2)CC1 [Example 311] | > 10 | –
CCCCOc1ccc(N2CCN(S(=O)(=O)C3(C(=O)NO)CCN(C(=O)C4CC4)CC3)CC2)cc1 [Example 260] | > 10 | –
COCCOc1ccc(N2CCN(S(=O)(=O)C3(C(=O)NO)CCN(C4CC4)CC3)CC2)cc1F [Example 297] | > 10 | –
CCCCOc1ccc(N2CCN(S(=O)(=O)C3(C(=O)NO)CCN(C(C)(C)C)CC3)CC2)c(F)c1 [Example 84] | – | > 10
CCCCOc1ccc(N2CCN(S(=O)(=O)C3(C(=O)NO)CCN(c4ccc(O)nn4)CC3)CC2)cc1 [Example 283] | 9.79 | –
O=C(NO)C1(S(=O)(=O)N2CCN(c3ccc(-c4ccccc4)cc3)CC2)CCOCC1 [Example 76] | – | 1.34
CCCCCc1ccc(N2CCN(S(=O)(=O)C3(C(=O)NO)CCN(C4CC4)CC3)CC2)cc1 [Example 272] | > 10 | –
CCCCOc1ccc(N2CCN(S(=O)(=O)C3(C(=O)NO)CCN(CC4CC4)CC3)CC2)cc1 [Example 298] | > 10 | –
C#CCOC(=O)N1CCC(C(=O)NO)(S(=O)(=O)N2CCN(c3ccc(OCCCC)cc3)CC2)CC1 [Example 98] | – | > 10
O=C(NO)C1(S(=O)(=O)N2CCN(c3ccc(OCCCC(F)(F)F)cn3)CC2)CCOCC1 [Example 83] | – | 2.85
COCCN1CCC(C(=O)NO)(S(=O)(=O)N2CCN(c3ccc(OCCCCF)cc3)CC2)CC1 [Example 88] | – | > 10
CCN1CCC(C(=O)NO)(S(=O)(=O)N2CCN(c3ccc(OCCCC(F)(F)F)cc3)CC2)CC1 [Example 78] | – | > 10
CCCCOc1ccc(N2CCN(S(=O)(=O)C3(C(=O)NO)CCN(C(=O)CC(F)(F)F)CC3)CC2)cc1 [Example 265] | > 10 | –
CCCCOc1ccc(N2CCN(S(=O)(=O)C3(C(=O)NO)CCOCC3)CC2)c(F)c1 [Example 90] | – | > 10
CCCCOc1ccc(N2CCN(S(=O)(=O)C3(C(=O)NO)CCN(c4ccc(C)nn4)CC3)CC2)cc1 [Example 275] | > 10 | –
O=C(NO)C1(S(=O)(=O)N2CCN(c3ccc(OCCCC(F)(F)F)cc3F)CC2)CCOCC1 [Example 81] | – | > 10
CCCCOc1ccc(N2CCN(S(=O)(=O)C3(C(=O)NO)CCN(C)CC3)CC2)cc1 [Example 280] | > 10 | –
O=C(NO)C1(S(=O)(=O)N2CCN(c3ccc(CCC(F)(F)F)cc3)CC2)CCOCC1 [Example 77] | – | > 10
CCCCOc1ccc(N2CCN(S(=O)(=O)C3(C(=O)NO)CCN(C(=O)CC)CC3)CC2)cc1 [Example 274] | > 10 | –
CCCCc1ccc(N2CCN(S(=O)(=O)C3(C(=O)NO)CCOCC3)CC2)c(F)c1 [Example 91] | – | 5.11
CCCCOc1ccc(N2CCN(S(=O)(=O)C3(C(=O)NO)CCN(C(=O)c4ccccc4)CC3)CC2)cc1 [Example 255] | > 10 | –
O=C(NO)C1(S(=O)(=O)N2CCN(c3ccc(COCC(F)(F)C(F)F)cc3)CC2)CCOCC1 [Example 71] | – | > 10
CC(C)COc1ccc(N2CCN(S(=O)(=O)C3(C(=O)NO)CCOCC3)CC2)cc1Cl [Example 79] | – | > 10
CCCCCc1ccc(C2CCN(S(=O)(=O)C3(C(=O)NO)CCOCC3)CC2)nc1 [Example 305] | 6.7 | –
